For assay [1], the target named is full-length wt-BTK enzyme (Homo sapiens (Human), UniProt Q06187). The experiment in a line: Biochemical kinase assay wt-BTK (IMAP). The essentials:
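Compound and enzyme (final 1.2 nM) were pre-incubated for 1 h at RT, after which the reaction was started with 4 μM ATP plus 50 nM fluorescein-MBP substrate peptide. After 2 h in the dark, the IMAP progressive binding reagent stopped the reaction, and phosphorylation was read by fluorescence polarization.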

A further assay concerns the target wt-BTK (Homo sapiens (Human), UniProt Q06187). The experiment in a line: Binding kinetics measurements (Surface Plasmon Resonance) on wt-BTK. Particulars: for Tau (h) wt-BTK (Act): target residence time, SPR; for Kd: binding affinity by Surface Plasmon Resonance (SPR). The essentials:
(§1)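 Constants come from single-cycle kinetics: five rising compound injections (3.16-316 nM) at 30 μl/min and 22° C over streptavidin-captured BTK (wild type or mutant), running buffer containing 1% DMSO. Double referencing applied; induced-fit binders fitted to a two-state model; duplicates geometrically averaged; residence time derived.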

The target in the next assay is BTK C481S (Homo sapiens (Human), UniProt Q06187, C481S). The experiment in a line: Binding kinetics measurements (Surface Plasmon Resonance) on BTK C481S. The following applies: for Tau (h) BTK C418S (Act): target residence time for BTK C481S, SPR; for Kd: binding affinity by Surface Plasmon Resonance (SPR). In a few lines:
as §1

The next assay concerns the target BTK T474I (Homo sapiens (Human), UniProt Q06187, T474I). The experiment in a line: Binding kinetics measurements (Surface Plasmon Resonance) on BTK T474I. The following applies: for Tau (h) BTK T474I (Act): target residence time, SPR; for Kd: binding affinity by Surface Plasmon Resonance (SPR). In a few lines:
as §1

The subject of assay [2] is wt-TMD8 diffuse large B-cell lymphoma cells. The experiment in a line: Cell proliferation assay wt-TMD8 (ATPlite, 120 hours). Format: cell-based. The following applies: B-cell; wt-TMD8 cells, 120 hours, ATPlite; read-out: IC50 wt-TMD8. In a few lines: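 Readout is percentage growth from ATPlite 1Step luminescence after 5 days (120 h) compound treatment of wt-TMD8 lymphoma cells (1600/well, RPMI-1640 + 10% FBS). Time-zero signal separates growth inhibition from cell kill; 0.3% DMSO wells without compound define maximal growth.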
(In general: In ATP-based viability assays light output follows the ATP content of the culture.)

One may read the IC50 as the concentration needed to halve the response being measured. What is called Kd is the concentration at which binding is half-saturated. The low end stands for higher affinity, the high end for lower affinity.

BTK T474I, sequence (Q06187 whole entry T474I): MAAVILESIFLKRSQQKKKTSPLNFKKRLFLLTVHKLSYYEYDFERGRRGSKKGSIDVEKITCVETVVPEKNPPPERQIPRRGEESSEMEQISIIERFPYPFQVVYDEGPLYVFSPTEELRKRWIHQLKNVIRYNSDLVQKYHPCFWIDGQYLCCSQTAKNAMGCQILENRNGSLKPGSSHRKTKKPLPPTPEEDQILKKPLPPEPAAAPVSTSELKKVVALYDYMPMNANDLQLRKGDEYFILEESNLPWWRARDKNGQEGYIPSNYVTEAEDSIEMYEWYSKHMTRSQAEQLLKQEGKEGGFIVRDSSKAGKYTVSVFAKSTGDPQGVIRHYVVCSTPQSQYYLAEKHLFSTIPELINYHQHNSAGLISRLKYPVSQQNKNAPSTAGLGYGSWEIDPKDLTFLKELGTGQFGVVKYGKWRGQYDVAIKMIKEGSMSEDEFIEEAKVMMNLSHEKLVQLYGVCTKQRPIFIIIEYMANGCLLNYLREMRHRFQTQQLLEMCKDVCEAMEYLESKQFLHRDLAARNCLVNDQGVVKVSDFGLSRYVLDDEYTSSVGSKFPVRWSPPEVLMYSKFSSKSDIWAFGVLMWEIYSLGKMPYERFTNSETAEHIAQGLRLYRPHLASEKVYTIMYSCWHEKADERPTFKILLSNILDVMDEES
BTK C481S, sequence (Q06187 whole entry C481S): as the sequence (Q06187 whole entry T474I) above, with I474T, C481S counted along it
full-length wt-BTK enzyme, sequence (Q06187 whole entry): as the sequence (Q06187 whole entry T474I) above, with I474T counted along it
wt-BTK, sequence (Q06187 whole entry): as the sequence (Q06187 whole entry T474I) above, with I474T counted along it

Turning to `N#Cc1ccnc(NC(=O)c2ccc(-c3nc4n5c(cnc(N)c35)/C=C/CCOCCC(=O)N[C@@H]3CC[C@@H]4C3)cc2)c1` [Example 201], the concentration for half-maximal inhibition (IC50) in assay [1] is less than 5 nM; in assay [2], less than 100 nM. In addition, the “Tau (h) wt-BTK (Act)” value on wt-BTK turned out to be 10.14 h. Also, at BTK C481S, the “Tau (h) BTK C418S (Act)” value stood at 1.91 h. The “Tau (h) BTK T474I (Act)” value on BTK T474I was 1.15 h.
`C[C@@H]1CC(=O)N[C@@H]2CCC[C@H](C2)n2nc(-c3ccc(C(=O)Nc4cc(C(F)(F)F)ccn4)cc3)c3c(N)ncc(c32)/C=C/CCN1` [Example 45]: in assay [1], the IC50 was less than 5 nM. For the same compound, at wt-BTK, the Kd is less than 5 nM and the “Tau (h) wt-BTK (Act)” value is given as 4.42 h. In addition, on BTK C481S, the Kd was less than 5 nM and the “Tau (h) BTK C418S (Act)” value came to 3.17 h. Also, on BTK T474I, the Kd is less than 2 nM and the “Tau (h) BTK T474I (Act)” value turned out to be 2.64 h. Also, the IC50 in assay [2] is less than 100 nM.
With `N#Cc1ccnc(NC(=O)c2ccc(-c3nc4n5c(cnc(N)c35)/C=C/CCCCCC(=O)N[C@@H]3CC[C@@H]4C3)cc2)c1` [Example 204], the IC50 is less than 5 nM in assay [1] and less than 100 nM in assay [2]. Also, the “Tau (h) wt-BTK (Act)” value at wt-BTK amounted to 5.64 h. At BTK C481S, this compound came in with a Kd of less than 5 nM. For the same compound, the “Tau (h) BTK T474I (Act)” value on BTK T474I was 0.90 h.
As for `N#Cc1ccnc(NC(=O)c2ccc(-c3nc4n5c(cnc(N)c35)/C=C/CCCCCC(=O)N[C@@H]3CCC[C@@H]4C3)cc2)c1` [Example 184], the IC50 is less than 5 nM in assay [1] and less than 100 nM in assay [2]. Further, the “Tau (h) wt-BTK (Act)” value at wt-BTK came to 5.55 h. Moreover, at BTK C481S, the Kd was less than 5 nM. Also, at BTK C481S, the “Tau (h) BTK C418S (Act)” value is reported as 2.43 h. Also, on BTK T474I, the “Tau (h) BTK T474I (Act)” value is 0.85 h.
On to `Nc1ncc2c3c1c(-c1ccc(C(=O)Nc4cc(C(F)(F)F)ccn4)cc1)nn3[C@@H]1CCC[C@H](C1)NC(=O)CCOC/C=C/2` [Example 25], for which the IC50 in assay [1] is less than 5 nM. On wt-BTK, the Kd was less than 5 nM and the “Tau (h) wt-BTK (Act)” value came out at 9.45 h. In addition, at BTK C481S, the Kd was less than 5 nM and the “Tau (h) BTK C418S (Act)” value is listed as 12.17 h. At BTK T474I, the Kd was less than 2 nM and the “Tau (h) BTK T474I (Act)” value came out at 3.02 h. The IC50 in assay [2] is less than 100 nM.

The values are drawn from patent US20250074911A1, “MACROCYCLIC BTK INHIBITORS” (Crossfire Oncology Holding B.V., priority 2021, published 2025).
